The values that follow come from ChEMBL document CHEMBL3271972, “Potentiation of the estrogenic activity of stilbestrol by spiro (cyclohexane-1,2'-indan)-1',4-dione” (1976).

Holding throughout (assay type): functional
Test [1] relates to Mus musculus. Kind of test: Estrogenic activity in albino ICI mouse assessed as uterus weight at 0.1 ug, sc qd for 3 days (reference value: 28 +/- 2 mg).
The test system of test [2] is Mus musculus. Kind of test: Estrogenic activity in albino ICI mouse assessed as body weight at 0.1 ug, sc qd for 3 days (reference value: 12.1 +/- 0.7 gram).
Test [3] concerns Mus musculus. Nature of the test: Estrogenic activity in albino ICI mouse assessed as body […] ratio at 0.1 ug, sc qd for 3 days (reference value: 232.2 +/- 10.4).
The subject of test [4] is Mus musculus. Nature of the test: Potentiation of stilbestrol-induced estrogenic activity in albino ICI mouse assessed as uterus weight at 0.1 ug, sc qd for 3 days (reference value: 28 +/- 2 mg).
For test [5], the system named is Mus musculus. Nature of the test: Potentiation of stilbestrol-induced estrogenic activity in albino ICI mouse assessed as body weight at 0.1 ug, sc qd for 3 days (reference value: 12.1 +/- 0.7 gram).
For test [6], the system named is Mus musculus. Kind of test: Estrogenic activity in albino ICI mouse assessed as uterus weight at 100 ug, sc qd for 3 days (reference value: 28 +/- 2 mg).
Test [7] relates to Mus musculus. Kind of test: Potentiation of stilbestrol-induced estrogenic activity in albino ICI mouse assessed as body […] ratio at 100 ug, sc qd for 3 days (reference value: 232.2 +/- 10.4).
In test [8] the test system is Mus musculus. Kind of test: Estrogenic activity in albino ICI mouse assessed as body […] ratio at 100 ug, sc qd for 3 days (reference value: 232.2 +/- 10.4).
Test [9] has as its system Mus musculus. Kind of test: Estrogenic activity in albino ICI mouse assessed as body weight at 100 ug, sc qd for 3 days (reference value: 12.1 +/- 0.7 gram).
In test [10] the test system is Mus musculus. Nature of the test: Potentiation of stilbestrol-induced estrogenic activity in albino ICI mouse assessed as body weight at 100 ug, sc qd for 3 days (reference value: 12.1 +/- 0.7 gram).
Test [11] has as its system Mus musculus. Nature of the test: Potentiation of stilbestrol-induced estrogenic activity in albino ICI mouse assessed as uterus weight at 100 ug, sc qd for 3 days (reference value: 28 +/- 2 mg).
The subject of test [12] is Mus musculus. Nature of the test: Potentiation of stilbestrol-induced estrogenic activity in albino ICI mouse assessed as body […] ratio at 0.1 ug, sc qd for 3 days (reference value: 232.2 +/- 10.4).

The structures appear in SMILES notation.

Take `CC/C(=C(/CC)c1ccc(O)cc1)c1ccc(O)cc1` [DIETHYLSTILBESTROL]: the Activity in the test with Mus musculus [1] came to 148 mg; with Mus musculus [2], 16.8 g. In the test with Mus musculus [3], the Ratio is 882.
Consider `O=C1CCC2(CC1)Cc1ccccc1C2=O`, for which the Activity in the test with Mus musculus [1] amounted to 35.5 mg; in the test on Mus musculus [4] it was 145 mg; with Mus musculus [5] it was 15.2 g; with Mus musculus [2] it was 14.1 g; with Mus musculus [6] it was 28.3 mg; in the test on Mus musculus [9], 13.3 g. Also, the Activity worked out at 14.1 g with Mus musculus [10] and 192.3 mg in the test with Mus musculus [11]. Also, the Ratio worked out at 1366.9 in the test with Mus musculus [7], 212.7 with Mus musculus [8], 957.1 in the test with Mus musculus [12] and 252 in the test with Mus musculus [3].
